Values joined by “and” are separate entries in the source; they are usually repeats but may differ in a detail not shown here. Equal entries are not always repeated. Active and inactive are the calls of the source.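 The calls were made as follows: active = compounds giving half or more protection of infected cells from virus-caused growth loss, again on retest; inactive = the rest.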
System: CEM cells HIV-1 protection, formazan growth assay
Test: NCI AIDS Antiviral Assay
Settings: for IC50: measured here: growth of uninfected CEM cells
Method in brief: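 Protection of CEM cells against HIV-1 measured as cell growth via soluble formazan read-out, with five concentrations tested on both infected and uninfected cells; failure to protect may reflect toxicity.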

SMILES	EC50	IC50	outcome
COc1nc(N)c(NC2OC(CO)C(O)C2O)c(=O)[nH]1 (stereo unspecified)	> 200 µM	112 µM and 126 µM	
O=S1(=O)C=C(c2ccccc2)C2(c3ccccc3)C=NNC21 (stereo unspecified)	> 200 µM	> 200 µM	
COC(=O)C(Cc1nc2ccc(Cl)cc2[nH]c1=O)/C(=N/NC(N)=O)C(=O)Nc1ccc(Cl)cc1 (stereo unspecified)	> 70.8 µM	> 70.8 µM	
N#Cc1ccc([N+](=O)[O-])cc1NC(N)=S	> 224 µM	> 224 µM	
CC(C)(C)C(=O)CS(=O)(=O)O	> 200 µM	> 200 µM	
COc1ccc(C2OC(=O)c3ncccc32)cc1 (stereo unspecified)	> 200 µM	> 200 µM	
O/N=C1/C2CC3CC1(c1ccccc1)CC(/C3=N/O)/C2=N\O (stereo unspecified)	> 200 µM	> 200 µM	
CCC(C=O)P1(=O)OC(C)(C)CN1C(C)(C)C (stereo unspecified)	> 200 µM	64.6 µM	
O=C1c2ccccc2C(=O)C1(Cl)C1(S(=O)(=O)O)c2ccccc2-c2ccccc21			inactive
FC(F)(F)C1(C(F)(F)F)C2CCC3(CC(F)(F)C(F)(F)S3)C1C2 (stereo unspecified)	> 200 µM	> 200 µM	
Cn1c(=O)oc2cc(C(=S)N3CCC(Cc4ccccc4)CC3)ccc21	> 200 µM	> 200 µM	
COC(=O)CCC(=O)CC(=O)C1=NS(=O)(=O)c2nc(S(N)(=O)=O)c(Cl)cc2N1	0.38 µM	550 µM	
CC1(C)CSCC(C)(C)C(=N/N)/C1=N\N	> 200 µM	> 200 µM	
O=c1c2cc3c(cc2[nH]c2ncccc12)OCO3	> 200 µM	145 µM	
CC1=NN2C(=N)/C(=C/c3ccco3)C(=O)N=C2S1	> 200 µM	> 200 µM	
CC(C)(C)[Si](C)(C)OCCOCn1cc(F)c(=O)[nH]c1=O	> 200 µM	> 200 µM	

SMILES	EC50	IC50	outcome
COc1ccc(N=Nc2ccc3oc(=O)c(C(=O)Nc4ccc(OC)cc4)cc3c2)cc1	> 200 µM	20 µM	
O=C1c2c(ccc3c2CCCC3)CC1Cc1ccc2c(c1)CCCC2 (stereo unspecified)	> 200 µM	> 200 µM	
COc1ccc(C2C(C#N)=C(S)N(C3OC(CO)C(O)C(O)C3O)C(C)=C2C(C)=O)cc1 (stereo unspecified)	> 200 µM	89.1 µM	
C1CCCN(N2CCOCC2)CC1	> 200 µM	> 200 µM	
COc1cc2c3c(c1OCc1ccccc1)NCCC3NCC2 (stereo unspecified)			inactive
CC1CN=C(CCc2ccc(NC(=O)c3ccc(C(=O)Nc4ccc(CCC5=NCC(C)N5)cc4)cc3)cc2)N1 (stereo unspecified)	> 200 µM	45.7 µM	
CN1C(=S)NC2C(O)C(O)C(CO)OC21 (stereo unspecified)	> 1070 µM	> 1070 µM	
NC(=O)O/N=C/c1ccccn1	> 200 µM	> 200 µM	
CC12CCC(=O)N1c1ccc([N+](=O)[O-])cc1N2 (stereo unspecified)			inactive
COc1ccccc1/C=N/Nc1nnc2c3ccccc3c3ncccc3c2n1	> 200 µM	138 µM	
CC(=O)OCCOCn1cnc2c(Cl)nc(Cl)nc21	> 200 µM	7.24 µM	
CC(CO)(CO)N1C(=O)C2C3c4ccccc4C(c4ccccc43)C2C1=O (stereo unspecified)	> 200 µM	> 200 µM	
CC(C)=CCC[C@@H](C)[C@H]1CC[C@@]2(C)[C@@H]3CC[C@H]4C(C)(C)[C@@H](O)CC[C@@]45C[C@@]35CC[C@]12C	> 200 µM	126 µM	
COC(=O)/C=C\C(C#N)(C#N)N=Cc1cc(Br)cs1	> 2 µM	0.676 µM	
Oc1[nH]c2ccccc2c1N=NC1=NCCCCN1	> 200 µM	> 200 µM	
Cc1ccc(C)c(NC(=O)CC2C(=O)Nc3ccccc3S2(=O)=O)c1 (stereo unspecified)	> 4.07 µM	> 4.07 µM	
